Measurements from patent US20220054501A1, “[…] ESTROGEN-RECEPTOR b (ER.beta) POSITIVE BREAST TUMOR” (DCIC Biopharmaceutical Limited, priority 2018, published 2022).

What was measured:
[1] = system: ERβ positive breast cancer; assay: treatment success of Anastrozol and Letrozol compared with the topical prodrug (Example 2); type: in vivo, human; details: for treatment success: patients, treated according to current treatment guidelines
Description: Studies were carried out on patients suffering from ERβ positive breast cancer.
First, the patients were treated with non-steroidal aromatase-inhibitors Anastrozol or Letrozol, the treatment was carried out according to the respective current treatment guidelines.
Then, said patients were treated with the pharmaceutical composition comprising the prodrug according to the present invention, that is, the prodrug (4-OHA) was applied topically to the affected breast.

[2] = biological target: ERβ (Homo sapiens, UniProt Q92731); assay: binding affinity towards ERβ compared with ERα; details: fold higher for ERβ
ERβ, sequence (Q92731 whole entry): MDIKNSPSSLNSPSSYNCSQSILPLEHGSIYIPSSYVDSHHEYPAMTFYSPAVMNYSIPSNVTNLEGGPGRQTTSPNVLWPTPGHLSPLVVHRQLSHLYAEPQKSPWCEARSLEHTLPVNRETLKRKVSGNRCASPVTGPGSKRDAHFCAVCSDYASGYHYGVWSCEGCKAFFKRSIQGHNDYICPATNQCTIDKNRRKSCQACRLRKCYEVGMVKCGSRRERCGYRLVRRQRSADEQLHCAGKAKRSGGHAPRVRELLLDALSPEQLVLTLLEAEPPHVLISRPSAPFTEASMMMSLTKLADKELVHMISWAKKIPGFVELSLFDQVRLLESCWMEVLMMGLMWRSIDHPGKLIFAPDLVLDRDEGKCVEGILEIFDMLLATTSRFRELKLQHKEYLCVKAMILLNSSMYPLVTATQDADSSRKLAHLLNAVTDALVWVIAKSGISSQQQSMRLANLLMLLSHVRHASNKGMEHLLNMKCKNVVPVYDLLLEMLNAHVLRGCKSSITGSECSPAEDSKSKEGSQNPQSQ

[3] = skin penetration on topical administration; details: topical administration (ointment, lotion or cream)
Excerpt: After topical administration, the compound(s) penetrate through the skin and concentrate in the fatty tissue.

[4] = system: ERβ positive breast cancer tumors; assay: shrinking of breast tumor tissue, topical prodrug (Example 1.1); type: in vivo, human; details: patients, tumors max 2 cm, after three weeks of treatment
Description: 1.1 Patients that were diagnosed (by mammography) with ERβ positive breast cancer tumors with a maximum size of 2 cm were treated with the pharmaceutical composition comprising the prodrug of the present invention: The prodrug was applied topically to the affected breast.

[5] = system: ER positive breast cancer; assay: shrinking of breast tumor, 2.5 wt.-% 4-OHA crème (Example 1.2); type: in vivo, human; details: 4 ml crème with 2.5 wt.-% 4-OHA, 2 times/day, after 3-5 weeks
Description: 1.2 Application of 4 ml of a crème (2 times/day) comprising 2.5 wt.-% 4-OHA to a breast suffering from an ER positive breast cancer.

[6] = system: MDA-MB-231 cells; assay: inhibition of proliferation of MDA MB-231 cells; type: cell-based, human
Description: MDA-MB-231 cell line is a highly aggressive, invasive, and poorly differentiated epithelial human breast cancer cell line. It lacks estrogen receptor a (ERα) and progesterone receptor (PR) expression, as well as HER2 (human epidermal growth factor 2) amplification. MDA-MB-231 cell line is ERβ positive. It is a model cell line for triple negative breast cancer (TNBC) being ERβ positive.
Two different concentrations of MDA-MB-231 cells (1.0e3 and 2.5e3) were incubated with increasing concentrations of 4-OHT (K+; 0.5 μM; 1 μM; 5 μm; 10 μM; 20 μM). The cells were incubated for 6 days (d). Then, absorption at 492 nm was measured.

CC(C)(C#N)c1cc(Cn2cncn2)cc(C(C)(C)C#N)c1 [Anastrozol]
treatment success [1]: not successful

N#Cc1ccc(C(c2ccc(C#N)cc2)n2cncn2)cc1 [Letrozol]
treatment success [1]: not successful

C[C@]12CC[C@H]3[C@@H](CCC4C(O)C(O)CC[C@@]43C)[C@@H]1CC[C@@H]2O (stereo partly drawn) [4-OHBA, 4-hydroxy-5-alpha-androstane-3-beta,17beta-diol]
affinity towards ERβ relative to affinity towards ERα [2]: about 10 times

C[C@]12CCC(=O)C(O)=C1CC[C@@H]1[C@@H]2CC[C@]2(C)C(=O)CC[C@@H]12 [4-OHA, 4-hydroxyandrost-4-ene-3,17-dione]
skin penetration capabilities [3]: excellent skin penetration capabilities | patients with stabilisation of the disease over 6 months ([1]; topical, after unsuccessful Anastrozol or Letrozol treatment): 50% | tumor size [4]: reduction in tumor size | size of the tumor [5]: significantly decreased

C[C@]12CC[C@H]3[C@@H](CCC4=C(O)C(=O)CC[C@@]43C)[C@@H]1CC[C@@H]2O [4-OHT, 4-hydroxytestosterone]
end concentration from which significant inhibition of cell growth takes place ([6]; 6 d incubation, absorption at 492 nm): at least 5 μM/L | inhibition at 5 µM ([6]; Homo sapiens, MDA-MB-231, 144 h, 5 μM/L 4-OHT, cell concentration 1.0e3, 6 d, read-out: inhibition of cell growth): ~50% | inhibition at 20 µM ([6]; Homo sapiens, MDA-MB-231, 144 h, 20 μM/L 4-OHT, 6 d, read-out: inhibition of cell growth): 75 to 80%
